Laboratory results from US12649755B2, “Plasmin inhibitor, preparation method therefor and application thereof” (SCINNOHUB PHARMACEUTICAL CO., LTD, priority 2020, dated 2026).
pIC50: −log10 of the molar value. Like-named read-outs stand apart in the source and are kept apart here.

Experiments:
[1] = system: plasma clots (human plasma, tPA-induced lysis); assay: Plasma clot lysis assay; format: biochemical; conditions: for pIC50: human plasma, tPA, clot lysis time by absorbance at 405 nm, read-out: IC50 value for inhibition of plasma clot lysis
Text: To determine the inhibitory effect of the compounds of the invention on the degradation of plasma clots.
3. […] The time corresponding to the median of the absorption value in the descending section-the time corresponding to the median of the absorption value in the ascending section is the plasma clot degradation time (Clot lysis time).
Taking the log value of the compound concentration as the X-axis, and the percentage inhibition rate as the Y-axis, and dose-response curves were fitted with the software GraphPad Prism 5 by using log (inhibitor) vs. Response-Variable slope to derive IC50 values of compounds inhibiting the degradation of plasma clots. Y=min+(max−min)/(1+10^((LogIC50−X)×Hillslope). Formula: […]

[2] = Rat PK assay, intravenous administration; format: in vivo; conditions: male, Sprague-Dawley, plasma, SD rats, 1 mg/kg single dose
Method: The pharmacokinetic profile of the compounds of the invention in rats was studied by measuring the plasma drug concentration after intravenous administration.
Male Sprague-Dawley rats of SPF grade, 3 rats each group, were obtained from: Shanghai Sippe-Bk Lab Animal Co., Ltd.
The compound was weighed and dissolved in normal saline to prepare a 0.2 mg/mL solution for intravenous administration.
The day before the experiment, the rats were fasted overnight and fed 4 hours after administration.
On the day of the experiment, the rats were administered according to the scheme in the table below. At each time point after administration, approximately 200 μL of blood was collected from the jugular vein and placed in heparin sodium anticoagulation tubes. Blood samples were placed on ice after collection, and the plasma was separated by centrifugation within 1 hour (centrifugation conditions: 6800 g, 6 minutes, 2-8° C.). The separated plasma was stored in a refrigerator at −80° C. for biological sample analysis.
The compound concentration in rat plasma was determined by the following method: • Instruments and equipment: LC-MS/MS-19 (TQ5500, AB SCIEX, USA). • Internal standard: warfarin. • Chromatographic column: ACQUITY UPLC BEH C18, model 1.7 um 2.1*50 mm, purchased from Shenzhen Novah Chemical Technology Co., Ltd.; • Flow rate: 0.60 ml/min. • Column temperature: 40° C. • Mobile phase A: 0.1% formic acid in water. • Mobile phase B: 0.1% formic acid in acetonitrile.
Take 30 μL of the plasma sample prepared from item “3”, add 300 μL MeOH containing 100 ng/ml of internal standard to precipitate protein. The mixture was vortexed for 1 minute and centrifuged at 18000 g for 7 minutes. The supernatant was transferred to a 96-well plate. Inject 4 μL of supernatant into LC-MS/MS for analysis.
The concentration of the compound in rat plasma was determined by the above-mentioned LC-MS/MS analysis method, and pharmacokinetic parameters were calculated by using Phoenix WinNonlin7.0 software according to blood concentration data of different time points.

[3] = system: human whole blood under hyperfibrinolytic state induced by rtPA; assay: Human whole blood thromboelastography (TEG) assay; format: biochemical; conditions: for CLT doubling: clot lysis time at the doubling concentration
Method: The antifibrinolytic effect of the compounds of the invention in the human whole blood under hyperfibrinolytic state induced by rtPA (recombinant tissue […]) was determined using the Thromboelastogram (TEG).
• Source of human blood: All human blood used in the experiments was provided by healthy volunteers. 3. Experimental Procedure • (1) Preparation of test substance solution: Accurately weigh the test substance, and use normal saline to prepare the test substance to the following concentrations (100×test concentration): • Tranexamic acid (μM): 3000, 1000, 300, 100, 30, 10, 0; • Example 6 (μM): 1000, 300, 100, 30, 10, 3, 0. • (2) Preparation of rt-PA (alteplase for injection): the active dry powder of rtPA was formulated to 25 μg/mL using water for injection in the rtPA package. • (3) Reaction system:
Mix 392 μL of sodium citrate anticoagulated whole blood with 4 μL rtPA and 4 μL test substance, reacted at room temperature, and TEG curve was detected for 2 hours to obtain the time parameter of CLT (clot lysis time). • (4) Result calculations
Taking the log value of the compound concentration as the X-axis and the CLT value as the Y-axis, and dose-response curves were fitted using log (inhibitor) vs. Response-Variable slope (GraphPad Prism 8 software).
The concentration of compound corresponding to doubling the CLT time was calculated.

fibrinolysis = conditions: relative to EACA; cited from earlier work
[4] = relative inhibition of plasma clot lysis vs tranexamic acid in vitro, plasma clot lysis

Cl.O=P(O)(O)c1ccc2c(n1)CCNC2 [Example 1, (5,6,7,8-tetrahydro-1,6-naphthyridin-2-yl)phosphonic Acid Hydrochloride]
pIC50 [1]: 6.05
IC50 ratio (IC50 Examples/IC50 Tranexamic acid) [1, 4]: 0.19
AUC [2]: 14 µg·h/mL
Cmax [2]: 10.2 µg/mL
clearance [2]: 0.0685 L/h/kg
half-life [2]: 1.96 h

Cl.O=P(O)(O)c1nc2c(cc1F)CNCC2 [Example 2, (3-fluoro-5,6,7,8-tetrahydro-1,6-naphthyridin-2-yl)phosphonic Acid Hydrochloride]
IC50 ratio (IC50 Examples/IC50 Tranexamic acid) [1, 4]: 0.11
AUC [2]: 30.1 µg·h/mL
Cmax [2]: 10.1 µg/mL
clearance [2]: 0.0333 L/h/kg
half-life [2]: 4.15 h

CCP(=O)(O)c1ccc2c(n1)CCNC2.Cl [Example 3, Ethyl (5,6,7,8-tetrahydro-1,6-naphthyridin-2-yl)-phosphinic Acid Hydrochloride]
IC50 ratio (IC50 Examples/IC50 Tranexamic acid) [1]: 0.86

Cl.O=P(O)(CCc1ccccc1)c1ccc2c(n1)CCNC2 [Example 4, Phenylethyl (5,6,7,8-tetrahydro-1,6-naphthyridin-2-yl) Phosphinic Acid Hydrochloride]
IC50 ratio (IC50 Examples/IC50 Tranexamic acid) [1, 4]: 0.36

Cl.O=P(O)(O)c1ccc2c(n1)C(F)(F)CNC2 [Example 5, (8,8-difluoro-5,6,7,8-tetrahydro-1,6-naphthyridin-2-yl) Phosphonic Acid Hydrochloride]
IC50 ratio (IC50 Examples/IC50 Tranexamic acid) [1, 4]: 1.3

O=P(O)(O)c1ccc2c(n1)CCNC2 [Example 6, (5,6,7,8-tetrahydro-1,6-naphthyridin-2-yl) Phosphonic Acid Monohydrate]
IC50 ratio (IC50 Examples/IC50 Tranexamic acid) [1, 4]: 0.09
Compound concentration for doubling CLT [3]: 0.12 µM
CLT doubling [3]: 37.06 min

Cl.O=P(O)(O)c1ccc2c(n1)C(N1CCOCC1)CNC2 (centres unmarked) [Example 7, (8-morpholino-5,6,7,8-tetrahydro-1,6-naphthyridin-2-yl) Phosphonic Acid Hydrochloride]
IC50 ratio (IC50 Examples/IC50 Tranexamic acid) [1, 4]: 0.3

Cl.O=P(O)(O)c1ccc2c(n1)C(O)CNC2 (centres unmarked) [Example 8, (8-hydroxy-5,6,7,8-tetrahydro-1,6-naphthyridin-2-yl) Phosphonic Acid Hydrochloride]
IC50 ratio (IC50 Examples/IC50 Tranexamic acid) [1, 4]: 0.2
AUC [2]: 6.66 µg·h/mL
Cmax [2]: 5.99 µg/mL
clearance [2]: 0.146 L/h/kg
half-life [2]: 1.74 h

Cl.O=P(O)(O)c1ccc2c(n1)C(OCCO)CNC2 (centres unmarked) [Example 9, (8-(2-hydroxyethoxy)-5,6,7,8-tetrahydro-1,6-naphthyridin-2-yl) Phosphonic Acid Hydrochloride]
IC50 ratio (IC50 Examples/IC50 Tranexamic acid) [1, 4]: 0.25

CC(C)CC1Cc2nc(P(=O)(O)O)ccc2CN1.Cl (centres unmarked) [Example 11, (7-isobutyl-5,6,7,8-tetrahydro-1,6-naphthyridin-2-yl) Phosphonic Acid Hydrochloride]
IC50 ratio (IC50 Examples/IC50 Tranexamic acid) [1, 4]: 0.08

CCCC1Cc2nc(P(=O)(O)O)ccc2CN1.Cl (centres unmarked) [Example 12, (7-propyl-5,6,7,8-tetrahydro-1,6-naphthyridin-2-yl) Phosphonic Acid Hydrochloride]
IC50 ratio (IC50 Examples/IC50 Tranexamic acid) [1, 4]: 0.2

Cl.O=P(O)(O)c1ccc2c(n1)CC(CCc1ccccc1)NC2 (centres unmarked) [Example 13, (7-phenylethyl-5,6,7,8-tetrahydro-1,6-naphthyridin-2-yl) Phosphonic Acid Hydrochloride]
IC50 ratio (IC50 Examples/IC50 Tranexamic acid) [1, 4]: 0.2

CCOP(=O)(O)c1ccc2c(n1)CCNC2.Cl [Example 15]
IC50 ratio (IC50 Examples/IC50 Tranexamic acid) [1, 4]: 0.29
AUC [2]: 2.83 µg·h/mL
Cmax [2]: 4.89 µg/mL
clearance [2]: 0.351 L/h/kg
half-life [2]: 0.77 h

COc1ccc(CCC2Cc3nc(P(=O)(O)O)ccc3CN2)cc1.Cl (centres unmarked) [Example 16]
IC50 ratio (IC50 Examples/IC50 Tranexamic acid) [1, 4]: 0.07

Cl.O=P(O)(c1ccccc1)c1ccc2c(n1)CCNC2 [Example 17]
IC50 ratio (IC50 Examples/IC50 Tranexamic acid) [1, 4]: 0.2
AUC [2]: 2.82 µg·h/mL
Cmax [2]: 4.09 µg/mL
clearance [2]: 0.35 L/h/kg
half-life [2]: 1.53 h

CC(=O)OCOP(=O)(O)c1ccc2c(n1)CCNC2 [Example 18]
IC50 ratio (IC50 Examples/IC50 Tranexamic acid) [1, 4]: 0.23

CC(C)C(=O)OCOP(=O)(O)c1ccc2c(n1)CCNC2 [Example 19]
IC50 ratio (IC50 Examples/IC50 Tranexamic acid) [1, 4]: 0.26

Cl.O=P(O)(O)c1ccc2c(n1)C(N1CCSCC1)CNC2 (centres unmarked) [Example 20]
IC50 ratio (IC50 Examples/IC50 Tranexamic acid) [1, 4]: 0.21

Cl.O=P(O)(O)c1ccc2c(n1)C(N1CCS(=O)(=O)CC1)CNC2 (centres unmarked) [Example 21]
IC50 ratio (IC50 Examples/IC50 Tranexamic acid) [1, 4]: 0.25

Cl.O=P(O)(O)c1ccc2c(n1)CC(COCCCO)NC2 (centres unmarked) [Example 22]
IC50 ratio (IC50 Examples/IC50 Tranexamic acid) [1, 4]: 0.14
AUC [2]: 5.53 µg·h/mL
Cmax [2]: 6.79 µg/mL
clearance [2]: 0.179 L/h/kg
half-life [2]: 3.58 h

CC(C)(C)CC1Cc2nc(P(=O)(O)O)ccc2CN1.Cl (centres unmarked) [Example 23]
IC50 ratio (IC50 Examples/IC50 Tranexamic acid) [1, 4]: 0.19

CC(C)C1Cc2nc(P(=O)(O)O)ccc2CN1.Cl (centres unmarked) [Example 24]
IC50 ratio (IC50 Examples/IC50 Tranexamic acid) [1, 4]: 0.14

Cl.O=P(O)(O)c1ccc2c(n1)CC(CCCc1ccccc1)NC2 (centres unmarked) [Example 25]
IC50 ratio (IC50 Examples/IC50 Tranexamic acid) [1, 4]: 0.21

CC(C)CCC1Cc2nc(P(=O)(O)O)ccc2CN1.Cl (centres unmarked) [Example 26]
IC50 ratio (IC50 Examples/IC50 Tranexamic acid) [1, 4]: 0.09

CC(C)(C)CCC1Cc2nc(P(=O)(O)O)ccc2CN1.Cl (centres unmarked) [Example 27]
IC50 ratio (IC50 Examples/IC50 Tranexamic acid) [1, 4]: 0.1

Cl.O=P(O)(O)c1ccc2c(n1)CC(CC1CCCCC1)NC2 (centres unmarked) [Example 28]
IC50 ratio (IC50 Examples/IC50 Tranexamic acid) [1, 4]: 0.07

Cl.O=P(O)(O)c1ccc2c(n1)CC(CCC1CCCCC1)NC2 (centres unmarked) [Example 29]
IC50 ratio (IC50 Examples/IC50 Tranexamic acid) [1, 4]: 0.09

Cl.O=P(O)(O)c1ccc2c(n1)CC(Cc1ccccc1)NC2 (centres unmarked) [Example 30]
IC50 ratio (IC50 Examples/IC50 Tranexamic acid) [1, 4]: 0.75

CC(C)CC1(CC(C)C)Cc2nc(P(=O)(O)O)ccc2CN1.Cl [Example 31]
IC50 ratio (IC50 Examples/IC50 Tranexamic acid) [1, 4]: 0.1

Cl.O=P(O)(O)c1ccc2c(n1)CC1(CCC1)NC2 [Example 32]
IC50 ratio (IC50 Examples/IC50 Tranexamic acid) [1, 4]: 0.7

Cl.O=P(O)(O)c1ccc2c(n1)CC1(CCCC1)NC2 [Example 33]
IC50 ratio (IC50 Examples/IC50 Tranexamic acid) [1, 4]: 0.22

Cl.O=P(O)(O)c1ccc2c(n1)CC1(CCCCC1)NC2 [Example 34]
IC50 ratio (IC50 Examples/IC50 Tranexamic acid) [1, 4]: 0.29

CCOC(=O)OCOP(=O)(O)c1ccc2c(n1)CCNC2 [Example 35]
IC50 ratio (IC50 Examples/IC50 Tranexamic acid) [1, 4]: 0.18

NC[C@H]1CC[C@H](C(=O)O)CC1 [Tranexamic acid, trans-4-aminomethyl-cyclohexane-carboxylic acid, reference compound]
pIC50 [1]: 5.32
Compound concentration for doubling CLT [3]: 1.78 µM
CLT doubling [3]: 34.66 min
AUC [2]: 2.83 µg·h/mL
Cmax [2]: 4.41 µg/mL
clearance [2]: 0.347 L/h/kg
half-life [2]: 1.28 h
anti-fibrinolytic activity, times that of EACA (fibrinolysis): about 10 times
